# Measured values published in patent US6531464B1, “Methods for the treatment of neurodegenerative disorders using substituted phenanthridinone derivatives” (Inotek Pharmaceutical Corporation, priority 1999, dated 2003).
# Columns and labels:
# Format in all cases: cell-based
# [1] = target: T1, PARS (Mus musculus, UniProt P11103); assay: High glucose induced PARS activation in murine lung microvascular endothelial cells; set-up: endogenous in cells; host or cells: primary lung microvascular endothelial cells from wild-type mice; conditions: 30 mM glucose, 6 hours; PJ34 100 nM-3 μM, MnTBAP 100 μM, carboxy-PTIO 300 μM, L-NMA 3 mM, L-NAME 3 mM
# Method: In brief, lung microvascular endothelial cells were isolated from wild-type (+/+) and PARS knockout (−/−) mice. Cells were maintained in F12/DMEM (1:1) medium supplemented with endothelial cell growth supplement (100 μg/l heparin and 10% fetal calf serum).
# PARS activation was measured in endothelial cells seeded in 6 well tissue culture plates pre-coated with endothelial cell attachment factor (Sigma). Medium was replaced by regular- (see above) or FCS-free HUVEC medium containing 5 mM D-glucose 12 h before the experiment. […] After 10 min, cells were scraped, transferred into Eppendorf tubes and the reaction was stopped by trichloroacetic acid (TCA). Pellets were washed three times in 5% TCA and then solubilized in 500 μl 2% SDS/0.1 N NaOH at 37° C. Contents of the tubes were added to 7 ml ScintiSafe Plus scintillation liquid and radioactivity was measured in a liquid scintillation counter (Wallac, Gaithersburg, Md.). Activity was normalized for protein content.
# Target sequence in this assay (P11103 whole entry): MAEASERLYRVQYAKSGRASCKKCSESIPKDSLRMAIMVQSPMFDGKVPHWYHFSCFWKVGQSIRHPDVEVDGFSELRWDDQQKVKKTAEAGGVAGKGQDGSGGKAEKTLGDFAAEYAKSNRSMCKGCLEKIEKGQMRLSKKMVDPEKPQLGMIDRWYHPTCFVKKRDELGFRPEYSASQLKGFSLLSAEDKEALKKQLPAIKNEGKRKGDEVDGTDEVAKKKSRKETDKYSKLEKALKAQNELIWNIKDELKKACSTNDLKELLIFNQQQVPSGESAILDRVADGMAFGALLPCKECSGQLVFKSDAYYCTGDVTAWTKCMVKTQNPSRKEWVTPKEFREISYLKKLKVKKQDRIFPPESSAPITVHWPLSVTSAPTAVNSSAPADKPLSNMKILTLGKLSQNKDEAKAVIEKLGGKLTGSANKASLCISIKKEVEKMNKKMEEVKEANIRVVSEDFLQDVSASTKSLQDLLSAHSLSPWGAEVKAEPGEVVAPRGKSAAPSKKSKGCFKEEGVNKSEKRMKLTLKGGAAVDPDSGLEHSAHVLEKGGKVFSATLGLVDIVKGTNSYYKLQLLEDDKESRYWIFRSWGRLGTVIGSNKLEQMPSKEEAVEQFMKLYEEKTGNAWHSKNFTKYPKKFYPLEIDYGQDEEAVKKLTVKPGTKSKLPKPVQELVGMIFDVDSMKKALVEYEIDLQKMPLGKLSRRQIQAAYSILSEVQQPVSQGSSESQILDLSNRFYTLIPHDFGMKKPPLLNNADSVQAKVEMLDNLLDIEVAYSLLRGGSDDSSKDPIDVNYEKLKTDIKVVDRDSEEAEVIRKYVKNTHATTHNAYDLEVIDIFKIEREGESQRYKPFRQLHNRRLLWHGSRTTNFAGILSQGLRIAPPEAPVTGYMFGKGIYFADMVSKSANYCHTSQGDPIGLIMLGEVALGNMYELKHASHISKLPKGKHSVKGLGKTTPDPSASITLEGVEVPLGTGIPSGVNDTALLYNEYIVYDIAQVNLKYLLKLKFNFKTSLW
# [2] = tested on: J774 macrophages; assay: LPS-stimulated J774 macrophages: cell viability; conditions: for viability of the cells suppressed by LPS exposure (in words): J774 macrophages exposed to LPS; for EC50: Mus musculus, J774, LPS 10 μg/ml, 30 min pretreatment 0.1 to 30 μM, measured at 24 h, mean±SEM n=3-6, read-out: Enhancement of cell Viability (J774)
# Text: (§1) In in vitro studies, J774 macrophages were exposed to bacterial lipopolysaccharide (LPS), to induce pro-inflammatory mediator production and cytotoxicity. […] This assay (the LPS-stimulated macrophage) represents an in vitro model of an inflammatory situation. Agents that block inflammatory mediator production in this assay are expected to have anti-inflammatory or immunosuppressive effects in inflammatory or immune diseases.
# (§2) The half-maximal inhibitory effect (in μM) of various PJ compounds was assessed under a variety of conditions in immunostimulated J774 macrophages and in peroxynitrite-stimulated thymocytes. Macrophages or thymocytes were first treated with a chosen PJ compound for 30 min at a concentration ranging from 0.1 to 30 μM. The cells were then immunostimulated with LPS (10 μg/ml) or treated with peroxynitrite (30 μM). MIP production in the macrophages was measured at 3 h, TNF and nitric oxide were measured at 24 h, cell viability in the macrophages were measured at 24 h. PARS activation and cell death in thymocytes were measured at 6 h. Measurements of mediator production, PARS activation and cell death were essentially as described in Németh, et al., Eur J Pharmacol 339:215-221, 1997 and Virág and Szabó, Br J Pharmacol, 126: 769-777, 1999. Results in Table 2 are shown as EC50 values (half maximal inhibition of mediator production or restoration of cell viability; in μM): [mean±SEM of n=3-6 determinations].
# [3] = tested on: MIP-2; assay: LPS-stimulated J774 macrophages: MIP-2 production; conditions: for production of the chemokine MIP-2 (in words): J774 macrophages exposed to LPS; for EC50: Mus musculus, J774, LPS 10 μg/ml, 30 min pretreatment 0.1 to 30 μM, measured at 3 h, mean±SEM n=3-6, read-out: Inhibition of MIP-2 (J774)
# Text: as §1, §2
# [4] = tested on: thymocytes; assay: Peroxynitrite-stimulated thymocytes: cell viability; conditions: for EC50: Thymocyte, peroxynitrite 30 μM, 30 min pretreatment 0.1 to 30 μM, measured at 6 h, mean±SEM n=3-6, read-out: Enhancement of cell viability (thymocyte); for oxidant-induced suppression of the viability of the cells (in words): isolated thymocytes exposed to peroxynitrite or hydrogen peroxide
# Method: as §2
# [5] = target: T1, PARS; assay: Peroxynitrite-stimulated thymocytes: PARS activation; conditions: isolated thymocytes exposed to peroxynitrite or hydrogen peroxide
# Method: The half-maximal inhibitory effect (in μM) of various PJ compounds was assessed under a variety of conditions in immunostimulated J774 macrophages and in peroxynitrite-stimulated thymocytes. Macrophages or thymocytes were first treated with a chosen PJ compound for 30 min at a concentration ranging from 0.1 to 30 μM. The cells were then immunostimulated with LPS (10 μg/ml) or treated with peroxynitrite (30 μM). MIP production in the macrophages was measured at 3 h, TNF and nitric oxide were measured at 24 h, cell viability in the macrophages were measured at 24 h. PARS activation and cell death in thymocytes were measured at 6 h.
# Target sequence in this assay (P11103 2-1013): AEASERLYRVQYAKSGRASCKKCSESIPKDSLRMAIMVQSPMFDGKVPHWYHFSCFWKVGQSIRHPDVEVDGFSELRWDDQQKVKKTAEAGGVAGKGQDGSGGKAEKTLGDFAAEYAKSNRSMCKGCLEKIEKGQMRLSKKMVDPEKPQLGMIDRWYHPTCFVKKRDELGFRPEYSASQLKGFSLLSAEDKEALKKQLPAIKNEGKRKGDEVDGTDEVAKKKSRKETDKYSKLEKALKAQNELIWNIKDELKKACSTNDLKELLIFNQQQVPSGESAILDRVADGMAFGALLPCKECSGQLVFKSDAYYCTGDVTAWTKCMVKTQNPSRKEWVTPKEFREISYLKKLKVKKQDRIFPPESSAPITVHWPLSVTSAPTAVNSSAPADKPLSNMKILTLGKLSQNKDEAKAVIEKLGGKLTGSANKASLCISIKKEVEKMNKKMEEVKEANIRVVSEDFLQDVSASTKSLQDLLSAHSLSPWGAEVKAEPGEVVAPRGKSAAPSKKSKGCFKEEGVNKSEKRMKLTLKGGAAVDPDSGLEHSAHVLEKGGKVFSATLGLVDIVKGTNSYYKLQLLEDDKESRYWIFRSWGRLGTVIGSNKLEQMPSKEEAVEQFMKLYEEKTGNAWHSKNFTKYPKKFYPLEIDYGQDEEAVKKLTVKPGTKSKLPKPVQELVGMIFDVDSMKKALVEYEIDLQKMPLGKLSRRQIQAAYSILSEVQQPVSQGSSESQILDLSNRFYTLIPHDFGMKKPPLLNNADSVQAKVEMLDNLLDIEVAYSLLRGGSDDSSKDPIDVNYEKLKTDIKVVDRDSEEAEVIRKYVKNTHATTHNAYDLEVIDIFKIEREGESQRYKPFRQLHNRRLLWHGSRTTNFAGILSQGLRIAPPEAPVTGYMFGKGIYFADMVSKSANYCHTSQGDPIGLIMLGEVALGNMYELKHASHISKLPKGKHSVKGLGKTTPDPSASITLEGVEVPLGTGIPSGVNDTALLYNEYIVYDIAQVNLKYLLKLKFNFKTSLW
# [6] = tested on: TNF-α; assay: LPS-stimulated J774 macrophages: TNF-α production; conditions: for production of the pro-inflammatory cytokine TNF-α (in words): J774 macrophages exposed to LPS; for EC50: Mus musculus, J774, LPS 10 μg/ml, 30 min pretreatment 0.1 to 30 μM, measured at 24 h, mean±SEM n=3-6, read-out: Inhibition of TNF-α (J774)
# Text: as §1, §2
# [7] = tested on: MIP-1α; assay: LPS-stimulated J774 macrophages: MIP-1α production; conditions: for production of the chemokine MIP-1α (in words): J774 macrophages exposed to LPS; for EC50: Mus musculus, J774, LPS 10 μg/ml, 30 min pretreatment 0.1 to 30 μM, measured at 3 h, mean±SEM n=3-6, read-out: Inhibition of MIP-1α (J774)
# Text: as §1, §2
# [8] = tested on: nitric oxide (nitrite); assay: LPS-stimulated J774 macrophages: nitric oxide production measured as nitrite; conditions: for production of nitric oxide, measured as nitrite (in words): J774 macrophages exposed to LPS; for EC50: Mus musculus, J774, read-out: Inhibition of Nitrite (J774)
# Text: as §1, §2
# [9] = LPS 10 μg/ml, 30 min pretreatment 0.1 to 30 μM, measured at 24 h, mean±SEM n=3-6
Structure (SMILES),high glucose induced PARP/PARS activation [1],viability of the cells suppressed by LPS exposure (in words) [2],EC50 [2] [µM],production of the chemokine MIP-2 (in words) [3],EC50 [3] [µM],EC50 [4] [µM],oxidant-induced suppression of the viability of the cells (in words) [4],activation of PARS (in words) [5],production of the pro-inflammatory cytokine TNF-α (in words) [6],EC50 [6] [µM],production of the chemokine MIP-1α (in words) [7],EC50 [7] [µM],"production of nitric oxide, measured as nitrite (in words) [8]","EC50 [8, 9] [µM]","Inhibition of Nitrite (J774) [8, 9]"
"COC(=O)[C@@H](N)CCCNC(=N)N[N+](=O)[O-] [L-NAME, N^G-nitro-L-arginine methyl ester]",significantly reduced,,,,,,,,,,,,,,
"CNC(=N)NCCC[C@H](N)C(=O)O [L-NMA, N^G-methyl-L-arginine]",significantly reduced,,,,,,,,,,,,,,
O=C(O)c1ccc(/C2=C3\C=CC(=N3)/C(c3ccc(C(=O)O)cc3)=c3/cc/c4[n]3[Mn]([Cl])[n]3c2ccc3/C(c2ccc(C(=O)O)cc2)=C2/C=CC(=N2)\C=4c2ccc(C(=O)O)cc2)cc1 [MnTBAP],attenuated,,,,,,,,,,,,,,
O=C(CN1CCCCC1)Nc1ccc2[nH]c(=O)c3ccccc3c2c1 [PJ36],,restored the viability,20.2 ± 2.3,inhibited,21.2 ± 2.7,0.3 ± 0.1,prevented,inhibited,inhibited,11.2 ± 1.1,inhibited,15.2 ± 2.1,inhibited,25.4 ± 2.9,
O=C(CN1CCOCC1)Nc1ccc2[nH]c(=O)c3ccccc3c2c1 [PJ38],,restored the viability,22.1 ± 2.7,inhibited,14.9 ± 1.3,0.4 ± 0.2,prevented,inhibited,inhibited,6.2 ± 0.42,inhibited,11.3 ± 1.4,inhibited,20.2 ± 1.5,
CCN(CC)CC(=O)Nc1ccc2[nH]c(=O)c3ccccc3c2c1 [PJ44],,restored the viability,16.2 ± 1.9,inhibited,22.4 ± 1.2,0.2 ± 0.1,prevented,inhibited,inhibited,11.1 ± 0.67,inhibited,10.2 ± 0.95,inhibited,,No effect
CN1CCN(CC(=O)Nc2ccc3[nH]c(=O)c4ccccc4c3c2)CC1 [PJ46],,restored the viability,> 30,inhibited,> 30,1.3 ± 0.3,prevented,inhibited,inhibited,9.2 ± 0.88,inhibited,> 30,inhibited,> 30,
CC1(C)N([O])C(c2ccc(C(=O)O)cc2)=[N+]([O-])C1(C)C [carboxy-PTIO],attenuated,,,,,,,,,,,,,,
